Data: ChEMBL document CHEMBL4725286, “Synthesis and antibiofilm evaluation of 3-hydroxy-2,3-dihydroquinazolin-4(1H)-one derivatives against opportunistic pathogen Acinetobacter baumannii” (2020)
The source made the active and inactive calls. No cut-off for these calls is given here.

Columns and labels:
Acinetobacter baumannii [1] = assay: Antibiofilm activity against Acinetobacter baumannii assessed as inhibition of biofilm formation at 50 uM incubated for 24 hrs at stationary condition by crystal violet staining based assay relative to control; format: functional
Acinetobacter baumannii [2] = assay: Antibiofilm activity against Acinetobacter baumannii assessed as inhibition of planktonic growth at 300 uM; format: functional, organism-based
Acinetobacter baumannii [3] = assay: Antibiofilm activity against drug-resistant Acinetobacter baumannii 1925052 assessed as inhibition of biofilm formation at 50 uM incubated for 24 hrs at stationary condition by crystal violet staining based assay relative to control; format: functional
Escherichia coli = assay: Antibiofilm activity against Escherichia coli assessed as inhibition of biofilm formation at 50 uM incubated for 24 hrs at stationary condition by crystal violet staining based assay relative to control; format: functional; conditions: DH5[alpha]
Pseudomonas aeruginosa = assay: Antibiofilm activity against Pseudomonas aeruginosa ATCC 27853 assessed as inhibition of biofilm formation at 50 uM incubated for 24 hrs at stationary condition by crystal violet staining based assay relative to control; format: functional
Acinetobacter baumannii [4] = assay: Antibacterial activity against Acinetobacter baumannii S1 incubated for 24 hrs by checkerboard titration assay; format: functional
Acinetobacter baumannii [5] = assay: Synergistic antibacterial activity against Acinetobacter baumannii S1 assessed as FIC incubated for 24 hrs in presence of 3-hydroxy-2-isopropyl-1-octyl-2,3-dihydroquinazolin-4(1H)-one by checkerboard titration assay; format: functional
Acinetobacter baumannii [6] = assay: Synergistic antibacterial activity against Acinetobacter baumannii S1 assessed as FIC incubated for 24 hrs in presence of 1-(3-chlorobenzyl)-3-hydroxy-2-(2-hydroxyphenyl)-2,3-dihydroquinazolin-4(1H)-one by checkerboard titration assay; format: functional
Acinetobacter baumannii [7] = assay: Antibacterial activity against Acinetobacter baumannii assessed as reduction in motility at 50 uM after 24 hrs photographic-based method; format: functional, organism-based
Acinetobacter baumannii [8] = assay: Induction of morphological changes in Acinetobacter baumannii biofilm inhibition assessed as reduction in extracellular polysaccharide at 10 uL preincubated for 24 hrs followed by incubating in dark for 1 hr by optical density based plate reader assay relative to control; format: functional; design: scale not given: the % may be the effect or the level left
Acinetobacter baumannii [9] = assay: Synergistic antibacterial activity against Acinetobacter baumannii S1 incubated for 24 hrs in presence of gentamycin sulfate by checkerboard titration assay; format: functional
Acinetobacter baumannii [10] = assay: Synergistic antibacterial activity against Acinetobacter baumannii S1 assessed as FIC incubated for 24 hrs in presence of gentamycin sulfate by checkerboard titration assay; format: functional
Acinetobacter baumannii [11] = assay: Synergistic antibacterial activity against Acinetobacter baumannii S1 assessed as FICI incubated for 24 hrs in presence of gentamycin sulfate by checkerboard titration assay; format: functional
Acinetobacter baumannii [12] = assay: Antibacterial activity against Acinetobacter baumannii assessed as bacterial death at 50 uM incubated for 15 mins by SYTO9 and PI staining based fluorescence microscopic method; format: functional, organism-based

CCCCCCCCN1c2ccccc2C(=O)N(O)C1c1ccc(C)cc1 (stereo not given)
inhibition at 50 µM (Acinetobacter baumannii [1]): 9.2% | inhibition (Acinetobacter baumannii [2]): inactive

O=C(Cc1cccc(Br)c1)N[C@H]1CCOC1=O
inhibition at 50 µM (Acinetobacter baumannii [1]): 7.9% | inhibition at 50 µM (Acinetobacter baumannii [3]): 28.2% | inhibition at 50 µM (Escherichia coli): 50.1% | inhibition at 50 µM (Pseudomonas aeruginosa): -1.72%

CCCCCCCCCCCCCCN1c2ccccc2C(=O)N(O)C1c1ccccc1O (stereo not given)
inhibition at 50 µM (Acinetobacter baumannii [1]): 20.9% | inhibition (Acinetobacter baumannii [2]): inactive

CCCCCCCCN1c2ccccc2C(=O)N(O)C1c1ccccc1 (stereo not given)
inhibition at 50 µM (Acinetobacter baumannii [1]): 5.5% | inhibition (Acinetobacter baumannii [2]): inactive

N#Cc1ccccc1CN1c2ccccc2C(=O)N(O)C1c1ccccc1O (stereo not given)
inhibition at 50 µM (Acinetobacter baumannii [1]): 17.6% | inhibition (Acinetobacter baumannii [2]): inactive

CCCCCCCCCCCCN1c2ccccc2C(=O)N(O)C1c1ccccc1O (stereo not given)
inhibition at 50 µM (Acinetobacter baumannii [1]): 8.9% | inhibition (Acinetobacter baumannii [2]): inactive

CCCCCCCCCCCCCCCCN1c2ccccc2C(=O)N(O)C1c1ccccc1O (stereo not given)
inhibition at 50 µM (Acinetobacter baumannii [1]): 4.7% | inhibition (Acinetobacter baumannii [2]): inactive

CN1c2ccccc2C(=O)N(O)C1c1ccccc1O (stereo not given)
inhibition at 50 µM (Acinetobacter baumannii [1]): 14.6% | inhibition (Acinetobacter baumannii [2]): inactive

O=C1c2ccccc2N(Cc2cccc(F)c2)C(c2ccccc2O)N1O (stereo not given)
inhibition at 50 µM (Acinetobacter baumannii [1]): 27.5% | inhibition (Acinetobacter baumannii [2]): inactive

CCCCCCN1c2ccccc2C(=O)N(O)C1c1ccccc1O (stereo not given)
inhibition at 50 µM (Acinetobacter baumannii [1]): 7.7% | inhibition (Acinetobacter baumannii [2]): inactive

O=C1c2ccccc2N(Cc2ccccc2)C(c2ccccc2O)N1O (stereo not given)
inhibition at 50 µM (Acinetobacter baumannii [1]): 17.5% | inhibition (Acinetobacter baumannii [2]): inactive

CCCCCCCCN1c2ccccc2C(=O)N(O)C1c1ccc(O)cc1 (stereo not given)
inhibition at 50 µM (Acinetobacter baumannii [1]): 13.3% | inhibition (Acinetobacter baumannii [2]): inactive

CN[C@@H]1[C@@H](O)[C@@H](O[C@@H]2[C@@H](O)[C@H](O[C@H]3O[C@H]([C@@H](C)NC)CC[C@H]3N)[C@@H](N)C[C@H]2N)OC[C@]1(C)O.O=S(=O)(O)O
MIC (Acinetobacter baumannii [4]): 0.25 mg/L | FIC (Acinetobacter baumannii [5]): 0.25 | FIC (Acinetobacter baumannii [6]): 0.25

CCCCCCCCCCN1c2ccccc2C(=O)N(O)C1c1ccccc1O (stereo not given)
inhibition at 50 µM (Acinetobacter baumannii [1]): 30.7% | inhibition (Acinetobacter baumannii [2]): inactive | inhibition at 50 µM (Acinetobacter baumannii [3]): 43.4% | inhibition at 50 µM (Escherichia coli): 40.8% | inhibition at 50 µM (Pseudomonas aeruginosa): 44.5% | Activity (Acinetobacter baumannii [7]): Active | Activity (Acinetobacter baumannii [8]): 31% | MIC (Acinetobacter baumannii [4]): 1020 mg/L | MIC (Acinetobacter baumannii [9]): 2 mg/L | Ratio (Acinetobacter baumannii [10]): 0.002 | fractional inhibitory concentration index (FICI) (Acinetobacter baumannii [11]): 0.252

CCCCCCCCN1c2ccccc2C(=O)N(O)C1C(C)C (stereo not given)
inhibition at 50 µM (Acinetobacter baumannii [1]): 10.2% | inhibition (Acinetobacter baumannii [2]): inactive | Activity (Acinetobacter baumannii [12]): inactive

O=C1c2ccccc2N(Cc2cccc(Cl)c2)C(c2ccccc2O)N1O (stereo not given)
inhibition at 50 µM (Acinetobacter baumannii [1]): 34.1% | inhibition (Acinetobacter baumannii [2]): inactive | inhibition at 50 µM (Acinetobacter baumannii [3]): 38.2% | inhibition at 50 µM (Escherichia coli): 27.5% | inhibition at 50 µM (Pseudomonas aeruginosa): 55.4% | Activity (Acinetobacter baumannii [7]): Active | Activity (Acinetobacter baumannii [8]): 34% | MIC (Acinetobacter baumannii [4]): 1020 mg/L | MIC (Acinetobacter baumannii [9]): 2 mg/L | Ratio (Acinetobacter baumannii [10]): 0.002 | fractional inhibitory concentration index (FICI) (Acinetobacter baumannii [11]): 0.252

CCCCCCCCN1c2ccccc2C(=O)N(O)C1c1ccc(OC)cc1 (stereo not given)
inhibition at 50 µM (Acinetobacter baumannii [1]): 1.3% | inhibition (Acinetobacter baumannii [2]): inactive

CCCCCCCCN1c2ccccc2C(=O)N(O)C1c1ccc(Cl)cc1 (stereo not given)
inhibition at 50 µM (Acinetobacter baumannii [1]): 5.2% | inhibition (Acinetobacter baumannii [2]): inactive

CCCCCCCCN1c2ccccc2C(=O)N(O)C1c1ccccc1Cl (stereo not given)
inhibition at 50 µM (Acinetobacter baumannii [1]): 8.1% | inhibition (Acinetobacter baumannii [2]): inactive

O=C1c2ccccc2NC(c2ccccc2O)N1O (stereo not given)
inhibition at 50 µM (Acinetobacter baumannii [1]): 16.3% | inhibition (Acinetobacter baumannii [2]): inactive

CCC/C=C/C1N(O)C(=O)c2ccccc2N1CCCCCCCC (stereo not given)
inhibition at 50 µM (Acinetobacter baumannii [1]): 2.4% | inhibition (Acinetobacter baumannii [2]): inactive

CCCCCCCCN1c2ccccc2C(=O)N(O)C1c1ccccc1O (stereo not given)
inhibition at 50 µM (Acinetobacter baumannii [1]): 23.5% | inhibition (Acinetobacter baumannii [2]): inactive

CCCCCCCCN1c2ccccc2C(=O)N(O)C1c1ccccc1OC (stereo not given)
inhibition at 50 µM (Acinetobacter baumannii [1]): 7.2% | inhibition (Acinetobacter baumannii [2]): inactive

CCCCN1c2ccccc2C(=O)N(O)C1c1ccccc1O (stereo not given)
inhibition at 50 µM (Acinetobacter baumannii [1]): 29.7% | inhibition (Acinetobacter baumannii [2]): inactive
